# In US8030478B2, “Method for nucleic acid replication and novel artificial base pairs” (priority 2005, dated 2011):
# Read-outs that look alike come from different tables or passages of the source. Marks after values point to notes of the source that are not given here.
# Molecular target: T7 RNA polymerase (Escherichia phage T7, UniProt P00573)
# Details: [α-32P]ATP, natural NTP 1 mM; for Composition of nucleotide incorporated as 5′ neighbor of A: Gp: theoretical [2]
# [1] = Entry 1, template temp35Ds-3, Pa 1 mM, theoretical [0]
# [2] = Entry 1, template temp35Ds-3, Pa 1 mM, theoretical [1]
# [3] = Entry 2, template temp35Ds-3, Pa 3 mM, theoretical [0]
# [4] = Entry 2, template temp35Ds-3, Pa 3 mM, theoretical [1]
# [5] = Entry 3, template temp35A-3, Pa 1 mM, theoretical [0]
# [6] = Entry 3, template temp35A-3, Pa 1 mM, theoretical [1]
# [7] = Entry 4, template temp35A-3, Pa 3 mM, theoretical [0]
# [8] = Entry 4, template temp35A-3, Pa 3 mM, theoretical [1]
# [9] = Entry 5, template temp35G-3, Pa 1 mM, theoretical [0]
# [10] = Entry 5, template temp35G-3, Pa 1 mM, theoretical [1]
# [11] = Entry 6, template temp35G-3, Pa 3 mM, theoretical [0]
# [12] = Entry 6, template temp35G-3, Pa 3 mM, theoretical [1]
# T7 RNA polymerase, sequence (P00573 whole entry): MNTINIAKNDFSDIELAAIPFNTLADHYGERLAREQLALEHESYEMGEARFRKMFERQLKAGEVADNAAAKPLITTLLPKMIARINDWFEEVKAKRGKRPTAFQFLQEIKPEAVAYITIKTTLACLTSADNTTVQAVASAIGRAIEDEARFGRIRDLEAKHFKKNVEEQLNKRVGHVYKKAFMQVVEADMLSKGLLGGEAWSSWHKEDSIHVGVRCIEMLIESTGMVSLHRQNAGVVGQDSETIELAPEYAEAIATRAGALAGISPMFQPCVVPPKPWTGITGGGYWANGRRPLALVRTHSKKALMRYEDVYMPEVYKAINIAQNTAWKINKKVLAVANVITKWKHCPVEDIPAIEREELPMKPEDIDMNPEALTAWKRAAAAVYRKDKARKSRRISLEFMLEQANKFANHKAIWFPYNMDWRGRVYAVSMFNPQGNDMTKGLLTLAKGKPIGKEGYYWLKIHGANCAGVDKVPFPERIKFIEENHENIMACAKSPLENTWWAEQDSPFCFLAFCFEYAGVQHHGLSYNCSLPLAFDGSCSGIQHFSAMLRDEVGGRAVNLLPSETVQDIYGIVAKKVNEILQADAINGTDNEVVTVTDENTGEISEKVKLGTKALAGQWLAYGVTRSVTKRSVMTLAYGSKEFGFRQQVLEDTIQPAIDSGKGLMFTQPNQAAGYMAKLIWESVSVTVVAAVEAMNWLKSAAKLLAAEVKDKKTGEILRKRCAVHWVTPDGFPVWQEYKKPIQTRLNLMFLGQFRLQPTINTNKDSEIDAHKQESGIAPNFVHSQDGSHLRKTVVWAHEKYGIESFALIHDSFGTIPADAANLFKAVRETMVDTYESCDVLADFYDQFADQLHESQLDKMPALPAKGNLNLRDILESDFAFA
structure (smiles),measurement,setting,value
"O=Cc1cccn1[C@@H]1O[C@H](COP(=O)(O)OP(=O)(O)OP(=O)(O)O)[C@@H](O)[C@H]1O [PaTP, 1-(β-D-Ribofuranosyl)pyrrole-2-carbaldehyde 5′-triphosphate]",Composition of nucleotide incorporated as 5′ neighbor of A: Cp,[1],0.01 [0]
same,Composition of nucleotide incorporated as 5′ neighbor of A: Up,[1],0.02 [0]
same,Composition of nucleotide incorporated as 5′ neighbor of A: Ap,[2],1.03^c [1]^d
same,Composition of nucleotide incorporated as 5′ neighbor of A: Np (Pap),[2],0.97 [1]
same,Composition of nucleotide incorporated as 5′ neighbor of A: Gp,"Entry 1, template temp35Ds-3, Pa 1 mM",1.97 [2]
same,Composition of nucleotide incorporated as 5′ neighbor of A: Cp,[3],0.01 [0]
same,Composition of nucleotide incorporated as 5′ neighbor of A: Up,[3],0.01 [0]
same,Composition of nucleotide incorporated as 5′ neighbor of A: Ap,[4],1.01 [1]
same,Composition of nucleotide incorporated as 5′ neighbor of A: Np (Pap),[4],1.00 [1]
same,Composition of nucleotide incorporated as 5′ neighbor of A: Gp,"Entry 2, template temp35Ds-3, Pa 3 mM",1.96 [2]
same,Composition of nucleotide incorporated as 5′ neighbor of A: Cp,[5],n.d.^f [0]
same,Composition of nucleotide incorporated as 5′ neighbor of A: Np (Pap),[5],n.d. [0]
same,Composition of nucleotide incorporated as 5′ neighbor of A: Ap,[6],0.99 [1]
same,Composition of nucleotide incorporated as 5′ neighbor of A: Up,[6],1.04 [1]
same,Composition of nucleotide incorporated as 5′ neighbor of A: Gp,"Entry 3, template temp35A-3, Pa 1 mM",1.96 [2]
same,Composition of nucleotide incorporated as 5′ neighbor of A: Cp,[7],n.d. [0]
same,Composition of nucleotide incorporated as 5′ neighbor of A: Np (Pap),[7],n.d. [0]
same,Composition of nucleotide incorporated as 5′ neighbor of A: Ap,[8],0.99 [1]
same,Composition of nucleotide incorporated as 5′ neighbor of A: Up,[8],1.03 [1]
same,Composition of nucleotide incorporated as 5′ neighbor of A: Gp,"Entry 4, template temp35A-3, Pa 3 mM",1.97 [2]
same,Composition of nucleotide incorporated as 5′ neighbor of A: Np (Pap),[9],n.d. [0]
same,Composition of nucleotide incorporated as 5′ neighbor of A: Up,[9],0.01 [0]
same,Composition of nucleotide incorporated as 5′ neighbor of A: Ap,[10],1.02 [1]
same,Composition of nucleotide incorporated as 5′ neighbor of A: Cp,[10],1.01 [1]
same,Composition of nucleotide incorporated as 5′ neighbor of A: Gp,"Entry 5, template temp35G-3, Pa 1 mM",1.96 [2]
same,Composition of nucleotide incorporated as 5′ neighbor of A: Np (Pap),[11],n.d. [0]
same,Composition of nucleotide incorporated as 5′ neighbor of A: Up,[11],0.01 [0]
same,Composition of nucleotide incorporated as 5′ neighbor of A: Ap,[12],1.01 [1]
same,Composition of nucleotide incorporated as 5′ neighbor of A: Cp,[12],1.00 [1]
same,Composition of nucleotide incorporated as 5′ neighbor of A: Gp,"Entry 6, template temp35G-3, Pa 3 mM",1.98 [2]
